Source: patent publication US8552048B2, “Phosphoramidate alkylator prodrugs for the treatment of cancer” (Threshold Pharmaceuticals, Inc., priority 2006, dated 2013)
Values joined by “and” are separate entries in the source; they are usually repeats but may differ in a detail not shown here. Equal values may be shown once. Read-outs that look alike come from different tables or passages of the source.

Tests used:
[1] = Pharmacokinetics in Sprague-Dawley rats (single dose i.v. and p.o.); assay type: in vivo, male Sprague-Dawley rats
Experimental: Pharmacokinetic studies were performed in male CD-1 (50 mg/kg i.p. or orally (p.o.)) or female nude mice (50 mg/kg i.v. or i.p.), male Sprague-Dawley rats (1, 5, 20 and 50 mg/kg i.v. and 100 mg/kg, p.o.), beagle dogs (20 mg/kg, i.v.) and cynomologus monkeys (20 mg/kg i.v.). Plasma TH302 concentrations were analyzed using a LC/MS method and the pharmacokinetic parameters computed using a noncompartmental method. Interspecies scaling was performed according to standard methods.
TH302 was dissolved in 50% PEG400/Saline to obtain a final concentration of 25 mg/mL, and then was further diluted to yield 25, 10, 2.5 and 0.5 mg/mL formulations of TH302 (pH The formulations were prepared just before dosing. The concentration of TH302 in dosing solution was confirmed by HPLC-UV. Male Sprague Dawley rats (body weight: 200 g to 230 g) were used in this study. Before the pharmacokinetic studies, animals were randomly assigned to four treatment groups cannulated in the carotid artery for serial blood sampling. All rats were administered a single intravenous bolus dose over one minute via the tail vein. The concentrations of TH302 in plasma were determined using a high performance liquid chromatography/mass spectrometry (HPLC/MS/MS) method. […]

[2] = GLP multiple-dose toxicity study in rats; assay type: in vivo
Experimental: Each rat received a 30 minute infusion once a week for three weeks (Q7D×3).

[3] = rats, 1 mg/kg i.v. bolus, individual animals, 1 mg/kg
[4] = rats, 5 mg/kg i.v. bolus, individual animals, 5 mg/kg
[5] = rats, 20 mg/kg i.v. bolus, individual animals, 20 mg/kg
[6] = rats, 50 mg/kg i.v. bolus, individual animals, 50 mg/kg

For `Cn1c(COP(=O)(NCCBr)NCCBr)cnc1[N+](=O)[O-]` [TH302], the AUC(0-t) ([1]; male, Sprague-Dawley, rat, plasma, iv, 50 mg/kg, rats, 50 mg/kg i.v. bolus, MEAN, read-out: AUC(0-t)) was 8460 ng·h/mL, the Cmax ([1]; male, Sprague-Dawley, rat, plasma, iv, 50 mg/kg, rats, 50 mg/kg i.v. bolus, MEAN, read-out: Cmax) was 35500 ng/mL and the MRT ([1]; male, Sprague-Dawley, rat, plasma, iv, 50 mg/kg, rats, 50 mg/kg i.v. bolus, MEAN, read-out: MRT) was 17.4 min. The AUC(0-inf) ([1]; male, Sprague-Dawley, rat, plasma, iv, 50 mg/kg, rats, 50 mg/kg i.v. bolus, individual animals) was 8830 ng·h/mL, the AUC(0-t) ([1]; male, Sprague-Dawley, rat, plasma, iv, 50 mg/kg, rats, 50 mg/kg i.v. bolus, individual animals, read-out: AUC(0-t)) was 8830 ng·h/mL and the clearance ([1]; male, Sprague-Dawley, rat, plasma, iv, 50 mg/kg, rats, 50 mg/kg i.v. bolus, individual animals, read-out: CL (converted)) was 94.3 mL/min/kg. The Cmax ([1]; male, Sprague-Dawley, rat, plasma, iv, 50 mg/kg, rats, 50 mg/kg i.v. bolus, individual animals, read-out: Cmax) was 37200 ng/mL, the MRT ([1]; male, Sprague-Dawley, rat, plasma, iv, 50 mg/kg, rats, 50 mg/kg i.v. bolus, individual animals, read-out: MRT) was 17.4 min and the Vd ([1]; male, Sprague-Dawley, rat, plasma, iv, 50 mg/kg, rats, 50 mg/kg i.v. bolus, individual animals, read-out: Vss) was 1.63 L/kg. For the same compound, the AUC ([1]; male, Sprague-Dawley, rat, plasma, iv, 50 mg/kg, rats, i.v. bolus, up to 8 mg/kg human equivalent daily dose, read-out: exposure of TH302, AUC) was about 8500 ng·h/mL, the clearance ([1]; male, Sprague-Dawley, rat, plasma, iv, rats, i.v. dose 1-50 mg/kg, range of means, read-out: Mean Cl) was 78.2 to 102 mL/min/kg and the Vd ([1]; male, Sprague-Dawley, rat, plasma, iv, rats, i.v. dose 1-50 mg/kg, range of means, read-out: mean Vss) was 1.67 to 5.09 L/kg. It also gave a half-life ([1]; male, Sprague-Dawley, rat, plasma, iv, rats, i.v. dose 1-50 mg/kg, range of means, read-out: mean terminal plasma t1/2) of 79.2 to 262 min, a Tmax ([1]; male, Sprague-Dawley, rat, plasma, iv, rats, 1 mg/kg i.v. bolus, individual animals) of 1.8 min and a Tmax ([1]; male, Sprague-Dawley, rat, plasma, iv, rats, 5 mg/kg i.v. bolus, individual animals) of 1.8 min. For the same compound, the Tmax ([1]; male, Sprague-Dawley, rat, plasma, iv, rats, 20 mg/kg i.v. bolus, individual animals) was 1.8 min, the Tmax ([1]; male, Sprague-Dawley, rat, plasma, iv, rats, 50 mg/kg i.v. bolus, individual animals) was 1.8 min and the Vβ ([1]; rats, 1 mg/kg i.v. bolus, MEAN) was 13.55 L/kg. For the same compound, the “AUC(0-t)” value [1, 3] was 273.70 ng·h/mL and 202.22 ng·h/mL, the “AUC(0-∞)” value [1, 3] was 282.01 ng·h/mL and 203.34 ng·h/mL and the CL [1, 3] was 59.2 mL/min/kg. For the same compound, the Cmax [1, 3] was 990.12 ng/mL and 732.20 ng/mL, the MRT [1, 3] was 61.8 min and the T1/2 [1, 3] was 130 min and 131 min. For the same compound, the Vss [1, 3] was 2.82 L/kg, the Vβ [1, 3] was 14.19 L/kg and 11.03 L/kg and 15.45 L/kg and the Vβ ([1]; rats, 5 mg/kg i.v. bolus, MEAN) was 30.66 L/kg. For the same compound, the “AUC(0-t)” value [1, 4] was 868.22 ng·h/mL, the “AUC(0-∞)” value [1, 4] was 919.39 ng·h/mL and the CL [1, 4] was 90.7 mL/min/kg. The Cmax [1, 4] was 3803.81 ng/mL, the MRT [1, 4] was 27 min and 81.6 min and the T1/2 [1, 4] was 73.2 min and 377 min. For the same compound, the Vβ [1, 4] was 11.99 L/kg and 49.33 L/kg, the Vβ ([1]; rats, 20 mg/kg i.v. bolus, MEAN) was 41.04 L/kg and the “AUC(0-t)” value [1, 5] was 3380.61 ng·h/mL and 3597.80 ng·h/mL. For the same compound, the “AUC(0-∞)” value [1, 5] was 3387.13 ng·h/mL and 3618.51 ng·h/mL, the CL [1, 5] was 92.2 mL/min/kg and the Cmax [1, 5] was 12009.10 ng/mL and 15053.50 ng/mL. The MRT [1, 5] was 24.6 min and 22.2 min, the T1/2 [1, 5] was 564 min and 64.8 min and 159 min and the Vss [1, 5] was 1.68 L/kg. For the same compound, the Vβ [1, 5] was 92.86 L/kg and 9.16 L/kg and 21.10 L/kg, the Vβ ([1]; rats, 50 mg/kg i.v. bolus, MEAN) was 11.41 L/kg and the “AUC(0-t)” value [1, 6] was 8482.72 ng·h/mL and 8083.24 ng·h/mL. The “AUC(0-∞)” value [1, 6] was 8488.15 ng·h/mL and 8102.61 ng·h/mL, the CL [1, 6] was 98.2 mL/min/kg and 103 mL/min/kg and the Cmax [1, 6] was 37277.10 ng/mL and 32033.40 ng/mL. The MRT [1, 6] was 18 min and 15.6 min, the T1/2 [1, 6] was 46.2 min and 56.4 min and 134 min and the Vss [1, 6] was 1.68 L/kg and 1.70 L/kg. The Vβ [1, 6] was 6.28 L/kg and 7.99 L/kg and 19.94 L/kg, the “time of mean peak plasma concentration” value ([1]; rats, 100 mg/kg p.o., first sampled time point) was 15 min and the linearity of pharmacokinetics ([1]; rats, 1, 5, 20 and 50 mg/kg i.v.) was “linear pharmacokinetics”. For the same compound, the “human equivalent dose of the minimally toxic dose” value ([2]; 25 mg/kg rat dose divided by 6.2) was “about 4 mg/kg”, the minimally toxic dose ([2]; rat) was 25 mg/kg and the “histopathology at the highest dose” value ([2]; rats, 50 mg/kg Q7D×3) was “effects on the bone marrow and the tongue with minor effects on the kidney and the uterus”. The primary toxicities ([2]; rats, 12.5, 25 and 50 mg/kg, 30 minute infusion Q7D×3) was “hematologic in nature and were reversible”.
